Results taken from PMC6691788, “Design and synthesis of phthalazine-based compounds as potent anticancer agents with potential antiangiogenic activity via VEGFR-2 inhibition” (Journal of Enzyme Inhibition and Medicinal Chemistry, 2019).

How the values were obtained:
Test in all cases: NCI 60 cell panel SRB screen
[1] = tested on: NCI-H226; format: cell-based; settings: Homo sapiens
[2] = tested on: SK-MEL-28; format: cell-based; settings: Homo sapiens
[3] = tested on: KM12; format: cell-based; settings: Homo sapiens
[4] = tested on: ACHN; format: cell-based; settings: Homo sapiens
[5] = tested on: SNB-75; format: cell-based; settings: Homo sapiens
[6] = tested on: A549/ATCC; format: cell-based; settings: Homo sapiens
[7] = tested on: SK-MEL-5; format: cell-based; settings: Homo sapiens
[8] = tested on: RPMI-8226; format: cell-based; settings: Homo sapiens
[9] = tested on: NCI/ADR-RES; format: cell-based; settings: Homo sapiens
[10] = tested on: SK-OV-3; format: cell-based; settings: Homo sapiens
[11] = tested on: SNB-19; format: cell-based; settings: Homo sapiens
[12] = tested on: RXF 393; format: cell-based; settings: Homo sapiens
[13] = tested on: NCI-H460; format: cell-based; settings: Homo sapiens
[14] = tested on: MALME-3M; format: cell-based; settings: Homo sapiens
[15] = tested on: U251; format: cell-based; settings: Homo sapiens, U-251
[16] = tested on: NCI-H23; format: cell-based; settings: Homo sapiens
[17] = tested on: M14; format: cell-based; settings: Homo sapiens
[18] = tested on: HCT-116; format: cell-based; settings: Homo sapiens
[19] = tested on: SN12C; format: cell-based; settings: Homo sapiens
[20] = tested on: HCC-2998; format: cell-based; settings: Homo sapiens
[21] = tested on: SW-620; format: cell-based; settings: Homo sapiens
[22] = tested on: SR; format: cell-based; settings: Homo sapiens
[23] = tested on: TK-10; format: cell-based, human
[24] = tested on: OVCAR-8; format: cell-based; settings: Homo sapiens
[25] = tested on: CCRF-CEM; format: cell-based, human
[26] = tested on: HOP-92; format: cell-based; settings: Homo sapiens
[27] = tested on: OVCAR-5; format: cell-based; settings: Homo sapiens
[28] = 5 log dose, 48 h, read-out: LC50 (the source's name)
[29] = single dose 10 μM, read-out: percent cell growth promotion

## Cc1nnc(Nc2ccc(NC(=O)Nc3ccc(Cl)cc3)cc2)c2ccccc12 [Compound 6e, 1–(4-Chlorophenyl)-3–(4-(4-methylphthalazin-1-ylamino)phenyl)urea]
[1]; NCI-H226, 5 log dose
  GI50: 3.61 µM
  IC (TGI): 15.9 µM
[1]; NCI-H226, 5 log dose, 48 h, read-out: LC50 (the source's name)
  CC50: 64.6 µM
[1]; NCI-H226, single dose 10 μM, read-out: percent cell growth promotion
  activity at 10 µM: 71.9%
[2]; SK-MEL-28
  GI50: 1.63 µM
[2]; SK-MEL-28, read-out: TGI
  IC (TGI): 3.2 µM
[2]; SK-MEL-28, read-out: percent cell growth promotion
  activity at 10 µM: -11.9%
[2]; SK-MEL-28, 5 log dose, 48 h, read-out: LC50 (the source's name)
  CC50: 6.29 µM
[3]; KM12, 5 log dose
  GI50: 1.99 µM
  IC (TGI): 4.53 µM
[3]; KM12, 5 log dose, 48 h, read-out: LC50 (the source's name)
  CC50: 11.1 µM
[3]; KM12, single dose 10 μM, read-out: percent cell growth promotion
  activity at 10 µM: 14.1%
[4]; 5 log dose
  GI50: 1.84 µM
  IC (TGI): 3.69 µM
[4]; [28]
  CC50: 7.41 µM
[4]; [29]
  activity at 10 µM: 58.8%
[5]; SNB-75, 5 log dose
  GI50: 1.91 µM
  IC (TGI): 5.49 µM
[5]; SNB-75, 5 log dose, 48 h
  LC50 (concentration killing 50% of cells): 21.3 µM
[5]; SNB-75, single dose 10 μM, read-out: percent cell growth promotion
  activity at 10 µM: 68.1%
[6]; 5 log dose
  GI50: 3.24 µM
  IC (TGI): 8.59 µM
[6]; 5 log dose, 48 h
  LC50 (concentration killing 50% of cells): 37.9 µM
[6]; [29]
  activity at 10 µM: 26.4%
[7]; SK-MEL-5
  GI50: 1.85 µM
[7]; SK-MEL-5, read-out: TGI
  IC (TGI): 3.5 µM
[7]; SK-MEL-5, read-out: percent cell growth promotion
  activity at 10 µM: 52.3%
[7]; SK-MEL-5, 5 log dose, 48 h, read-out: LC50 (the source's name)
  CC50: 6.65 µM
[8]; RPMI-8226, 5 log dose
  GI50: 2.6 µM
  IC (TGI): 6.48 µM
[8]; RPMI-8226, 5 log dose, 48 h, read-out: LC50 (the source's name)
  CC50: > 100 µM
[8]; RPMI-8226, single dose 10 μM, read-out: percent cell growth promotion
  activity at 10 µM: -11.9%
[9]; 5 log dose
  GI50: 3.63 µM
  IC (TGI): 14.9 µM
[9]; [28]
  CC50: > 100 µM
[9]; [29]
  activity at 10 µM: 45.1%
[10]; SK-OV-3, 5 log dose
  GI50: 2.61 µM
  IC (TGI): 6.59 µM
[10]; SK-OV-3, 5 log dose, 48 h, read-out: LC50 (the source's name)
  CC50: 30.7 µM
[10]; SK-OV-3, single dose 10 μM, read-out: percent cell growth promotion
  activity at 10 µM: 66.4%
[11]; SNB-19, 5 log dose
  GI50: 2.77 µM
  IC (TGI): 8.72 µM
[11]; SNB-19, 5 log dose, 48 h, read-out: LC50 (the source's name)
  CC50: 56.6 µM
[11]; SNB-19, single dose 10 μM, read-out: percent cell growth promotion
  activity at 10 µM: 16.2%
[12]; RXF 393, 5 log dose
  GI50: 2.17 µM
  IC (TGI): 4.13 µM
[12]; RXF 393, 5 log dose, 48 h, read-out: LC50 (the source's name)
  CC50: 7.84 µM
[12]; RXF 393, single dose 10 μM, read-out: percent cell growth promotion
  activity at 10 µM: -39.7%
[13]; NCI-H460, 5 log dose
  GI50: 3.46 µM
  IC (TGI): 11.7 µM
[13]; NCI-H460, 5 log dose, 48 h
  LC50 (concentration causing 50% cell kill): 39.1 µM
[13]; NCI-H460, single dose 10 μM, read-out: percent cell growth promotion
  activity at 10 µM: 26.1%
[14]; Malme-3M
  GI50: 2.17 µM
[14]; Malme-3M, read-out: TGI
  IC (TGI): 4.79 µM
[14]; Malme-3M, read-out: percent cell growth promotion
  activity at 10 µM: -9.9%
[14]; MALME-3M, 5 log dose, 48 h, read-out: LC50 (the source's name)
  CC50: 20 µM
[15]; U251, 5 log dose
  GI50: 1.98 µM
  IC (TGI): 3.75 µM
[15]; U251, 5 log dose, 48 h, read-out: LC50 (the source's name)
  CC50: 7.07 µM
[15]; U251, single dose 10 μM, read-out: percent cell growth promotion
  activity at 10 µM: 5.4%
[16]; NCI-H23, 5 log dose
  GI50: 2.38 µM
  IC (TGI): 6.31 µM
[16]; NCI-H23, 5 log dose, 48 h, read-out: LC50 (the source's name)
  CC50: 40.9 µM
[16]; NCI-H23, single dose 10 μM, read-out: percent cell growth promotion
  activity at 10 µM: 48.8%
[17]; M14
  GI50: 1.76 µM
[17]; M14, read-out: TGI
  IC (TGI): 3.57 µM
[17]; M14, read-out: percent cell growth promotion
  activity at 10 µM: 37.3%
[17]; M14, 5 log dose, 48 h, read-out: LC50 (the source's name)
  CC50: 7.27 µM
[18]; HCT-116, 5 log dose
  GI50: 1.86 µM
  IC (TGI): 3.59 µM
[18]; HCT-116, 5 log dose, 48 h
  LC50 (lethal concentration 50%): 6.93 µM
[18]; HCT-116, single dose 10 μM, read-out: percent cell growth promotion
  activity at 10 µM: 7.67%
[19]; 5 log dose
  GI50: 2.86 µM
  IC (TGI): 9.41 µM
[19]; [28]
  CC50: 60.1 µM
[19]; [29]
  activity at 10 µM: 60.1%
[20]; HCC-2998, 5 log dose
  GI50: 2.84 µM
  IC (TGI): 8.09 µM
[20]; HCC-2998, 5 log dose, 48 h
  LC50 (50% lethal concentration): 27.8 µM
[20]; HCC-2998, single dose 10 μM, read-out: percent cell growth promotion
  activity at 10 µM: 40.5%
[21]; SW-620, 5 log dose
  GI50: 2.15 µM
  IC (TGI): 4.76 µM
[21]; SW-620, 5 log dose, 48 h, read-out: LC50 (the source's name)
  CC50: 11.9 µM
[21]; SW-620, single dose 10 μM, read-out: percent cell growth promotion
  activity at 10 µM: 20.3%
[22]; 5 log dose
  GI50: 2.56 µM
  IC (TGI): 9.55 µM
[22]; [28]
  CC50: > 100 µM
[22]; [29]
  activity at 10 µM: -3.51%
[23]; Homo sapiens, TK-10, 5 log dose
  GI50: 3.19 µM
[23]; Homo sapiens, TK-10, 5 log dose, 48 h, read-out: LC50 (the source's name)
  CC50: 33.7 µM
[23]; Homo sapiens, TK-10, single dose 10 μM, read-out: percent cell growth promotion
  activity at 10 µM: 51.7%
[23]; TK-10, 5 log dose
  TGI: 9.42 µM
[24]; OVCAR-8, 5 log dose
  GI50: 3.35 µM
  IC (TGI): 9.32 µM
[24]; OVCAR-8, 5 log dose, 48 h, read-out: LC50 (the source's name)
  CC50: 47.4 µM
[24]; OVCAR-8, single dose 10 μM, read-out: percent cell growth promotion
  activity at 10 µM: 31.4%
[25]; 5 log dose
  TGI: 5.99 µM
[25]; Homo sapiens, 5 log dose
  GI50: 2.38 µM
[25]; Homo sapiens, 5 log dose, 48 h, read-out: LC50 (the source's name)
  CC50: > 100 µM
[25]; Homo sapiens, single dose 10 μM, read-out: percent cell growth promotion
  activity at 10 µM: 11%
[26]; HOP-92, 5 log dose
  GI50: 2.56 µM
  IC (TGI): 6.6 µM
[26]; HOP-92, 5 log dose, 48 h, read-out: LC50 (the source's name)
  CC50: 42 µM
[26]; HOP-92, single dose 10 μM, read-out: percent cell growth promotion
  activity at 10 µM: 4.62%
[27]; OVCAR-5, 5 log dose
  GI50: 2.1 µM
  IC (TGI): 4.99 µM
[27]; OVCAR-5, 5 log dose, 48 h, read-out: LC50 (the source's name)
  CC50: 18.7 µM
[27]; OVCAR-5, single dose 10 μM, read-out: percent cell growth promotion
  activity at 10 µM: 72.8%
